In brackets after ≈: the same amount, converted by molar mass. Entries after “also recorded” stand apart in the source; their conditions may differ.
Columns and labels:
[1] = test system: Methicillin susceptible Staphylococcus aureus; assay: MIC against MSSA; type: cell-based; details: MSSA
Procedure: (§1) 96-well plates were seeded with 5 × 10^5 CFU/mL in a volume of 100 μL of tryptic soy broth (TSB) per well for Staphylococcus aureus assays. Compounds were dissolved in DMSO and serially diluted as 1:2 dilutions to give the final concentration ranging from 0.25 to 128 μg/mL per well. […] Plates were incubated at 37 °C for 18–20 hours and MIC was determined by reading OD625. For M.avium and M.abscessus, 7H9 broth media was used for determination of MICs. The final concentration was 5 × 10^5 CFU/mL in each well. The plate was incubated at 37 °C for 7–8 days and MICs were determined using a Tecan microplate reader (OD625) and resazurin reduction assay.

[2] = test system: MRSA USA500; assay: MIC against MRSA USA500; type: cell-based, Staphylococcus aureus; details: Staphylococcus aureus; TSB, 37 °C, 18–20 hours; read-out: MIC, Staphylococcus aureus isolate USA500
Procedure: as §1

[3] = test system: MRSA USA300; assay: MIC against MRSA USA300; type: cell-based, Staphylococcus aureus; details: Staphylococcus aureus; TSB, 37 °C, 18–20 hours; read-out: MIC, Staphylococcus aureus isolate USA300
Procedure: as §1

[4] = test system: MRSA USA800; assay: MIC against MRSA USA800; type: cell-based, Staphylococcus aureus; details: Staphylococcus aureus; TSB, 37 °C, 18–20 hours; read-out: MIC, Staphylococcus aureus isolate USA800
Procedure: as §1

[5] = test system: MRSA USA200; assay: MIC against MRSA USA200; type: cell-based, Staphylococcus aureus; details: Staphylococcus aureus; TSB, 37 °C, 18–20 hours; read-out: MIC, Staphylococcus aureus isolate USA200
Procedure: as §1

[6] = test system: Mycobacterium avium; assay: MIC against Mycobacterium avium; type: cell-based; details: 7H9 broth, 7–8 days
Procedure: as §1

[7] = test system: MRSA USA100; assay: MIC against MRSA USA100; type: cell-based, Staphylococcus aureus; details: Staphylococcus aureus; TSB, 37 °C, 18–20 hours; read-out: MIC, Staphylococcus aureus isolate USA100
Procedure: as §1

[8] = test system: IL-6; assay: IL-6 release from THP-1 macrophages; type: cell-based, human; details: concentration equal to MIC, 24 h, 37 °C
Procedure: (§2) THP-1 cells were differentiated into macrophages by treatment with PMA (7.5 ng/mL). Levels of the human cytokines (GM-CSF, IFN-γ, IL-1β, IL-2, IL-4, IL-5, IL-6, IL-8, IL-10, TNF-α) released from THP-1 macrophages were determined using a multiplex kit from Life Technologies according to the manufacturer’s instructions. In brief, the 96 well filter plate was pre-wetted, and then 25 μL of the diluted bead suspension was added to each well and washed twice. 100 μL of samples and standards were added to each well. The plate was incubated at room temperature for 2 h on a shaker. Following washing, biotinylated detection antibody was added and incubated for 1 h. After washing, streptavidin-RPE was added to each well and incubated for 0.5 h. The plate was again washed, resuspended in 100 μL of the washing buffer, and read on the Luminex xMAP™ system (Bio-Rad, AtheNA multi-Lyte™, USA). All samples were run in triplicate and standards were run in duplicate.

[9] = test system: TNF-α; assay: TNF-α release from THP-1 macrophages; type: cell-based, human; details: concentration equal to MIC, 24 h, 37 °C
Procedure: as §2

[10] = test system: MRSA strains; assay: MIC against MRSA strains (summary); type: cell-based, Staphylococcus aureus; details: range over MRSA strains
Procedure: as §1

[11] = test system: Gram-positive bacteria; assay: MIC against Gram-positive bacteria (summary); type: cell-based; details: range over all tested Gram-positive bacteria
Procedure: as §1

[12] = test system: MRSA (USA 700); assay: Activity against extracellular MRSA in the presence of human MDMs; type: cell-based, Staphylococcus aureus; details: extracellular MRSA USA700, MIC and MIC/4, 24 h
Procedure: Human monocyte-derived macrophages (MDM) were cultured at a concentration of 1 × 10^6 cells/mL/well in a 24 well plate. MRSA (USA 700) was cultured in TSB (10 mL) until OD625 reached 0.4~0.5 and then centrifuged at 14,000 rpm for 10 min. The pellets were resuspended in 10 mL of DMEM supplemented with 10% human serum (no antibiotics). The bacteria medium was diluted with DMEM containing an inhibitor to obtain 1 × 10^6 CFU/mL and added to human MDMs (MOI = 1) in a 24-well plate. After 24 hour infection at 37 °C, the supernatants were serially diluted for CFU determination (TSA plates).

[13] = test system: Mycobacterium abscessus; assay: MIC against Mycobacterium abscessus; type: cell-based; details: Mycobacteroides abscessus, 7H9 broth, 7–8 days
Procedure: as §1

[14] = test system: MRSA USA700; assay: MIC against MRSA USA700; type: cell-based, Staphylococcus aureus; details: Staphylococcus aureus; TSB, 37 °C, 18–20 hours; read-out: MIC, Staphylococcus aureus isolate USA700
Procedure: as §1

[15] = test system: Pseudomonas aeruginosa; assay: MIC against Pseudomonas aeruginosa; type: cell-based; details: read-out: MIC, PA
[16] = test system: MRSA USA400; assay: MIC against MRSA USA400; type: cell-based, Staphylococcus aureus; details: Staphylococcus aureus; TSB, 37 °C, 18–20 hours; read-out: MIC, Staphylococcus aureus isolate USA400
Procedure: as §1

[17] = test system: MRSA (USA200); assay: Colony morphology / small colony variant formation on TSA; type: cell-based, Staphylococcus aureus; details: USA200 on TSA, 37 °C, up to 96 h (3a 4–16 μg/mL), 72 h (7c, rifampin)
Procedure: MRSA was streaked and then incubated on tryptic soy agar (TSA) containing 0, 2, 4, 8 or 16 μg/mL of inhibitor 3a or 4 μg/mL of 7C or 0.025 μg/mL of rifampin at 37 °C for 96 h. MK-4 (100 μg/mL) was supplemented in TSA containing 8 μg/mL of 3a for the rescue experiment.

[18] = test system: Enterococcus faecalis; assay: MIC against Enterococcus faecalis; type: cell-based; details: read-out: MIC, EF
[19] = test system: IL-1β; assay: IL-1β release from THP-1 macrophages; type: cell-based, human; details: concentration equal to MIC, 24 h, 37 °C
Procedure: as §2

[20] = biological target: MenA; details: previously reported; cited from earlier work

SMILES | MIC [1] | MIC [3] | MIC [14] | MIC [15] | MIC [16] | MIC [18] | M.tb IC50 (inhibition of both M.tb and MenA enzyme activity) [20] | further results
Fc1ccc(CCNCCCOc2ccc3ccc(OCCCNCCc4ccc(F)cc4)cc3c2)cc1 [7c] | 2 µg/mL (≈ 3.86 µM) | 3 µg/mL (≈ 5.78 µM) | 2 µg/mL (≈ 3.86 µM) | > 128 µg/mL | 1 µg/mL (≈ 1.93 µM) | 1 µg/mL (≈ 1.93 µM) |  | MIC [2]: 8 µg/mL (≈ 15.4 µM); MIC [4]: 4 µg/mL (≈ 7.71 µM); MIC [5]: 2 µg/mL (≈ 3.86 µM); MIC [6]: 3 µg/mL (≈ 5.78 µM); MIC [7]: 3 µg/mL (≈ 5.78 µM); IL-6 released from THP-1 macrophages [8]: decreased; also recorded: significantly reduced; TNF-α released from THP-1 macrophages [9]: decreased; MICs against MRSA strains (range) [10]: 1 to 8 µg/mL; MIC values against all Gram-positive bacteria (range) [11]: 0.5 to 16 µg/mL; increase of antibacterial activity compared to activities with MDMs [12]: 1.5 – 3 fold; increase of antibacterial activity compared to activities without MDMs [12]: 6–12 fold; MIC [13]: 6 µg/mL (≈ 11.6 µM); induction of small colony variants (SCV) [17]: did not induce SCV; IL-1β released from THP-1 macrophages [19]: stimulated the release
C=CCN(C)CCCCCCCCOc1ccc2ccc(OC)cc2c1 [compound 1] | 32 µg/mL (≈ 90 µM) | 16 µg/mL (≈ 45 µM) | 16 µg/mL (≈ 45 µM) | 128 µg/mL (≈ 360 µM) | 16 µg/mL (≈ 45 µM) | 8 µg/mL (≈ 22.5 µM) | 6 µg/mL | 
COc1ccc2ccc(OCCCCCCCCN3CCCCC3)cc2c1 [compound 2] | 16 µg/mL (≈ 43.3 µM) | 16 µg/mL (≈ 43.3 µM) | 16 µg/mL (≈ 43.3 µM) | > 64 µg/mL | 16 µg/mL (≈ 43.3 µM) | 16 µg/mL (≈ 43.3 µM) | 5 µg/mL | 

Reference: PMC5223195, “Novel long-chain compounds with both immunomodulatory and MenA inhibitory activities against Staphylococcus aureus and its biofilm” (Scientific Reports, 2017)
